From patent US8163793B2, “Proline derivatives” (Hoffman-La Roche Inc., priority 2009, dated 2012)

Experiments:
Cathepsin S = Cathepsin S (UniProt P25774); assay: Cathepsin enzyme inhibition assay (fluorogenic peptide substrate Z-Val-Val-Arg-AMC), Cathepsin S; format: biochemical, human and mouse; settings: enzyme 1 nM, substrate 20 μM, pH 6.5; read-out: CatS IC50
Method in brief: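 Human or mouse cathepsin S (1 nM) was run in 100 mM potassium phosphate pH 6.5 with 5 mM EDTA, 0.001% Triton X-100 and 5 mM DTT. The rise in AMC fluorescence from cleavage was measured, and IC50 values were calculated by standard methods and expressed in μM.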

Cat L = Cat L (UniProt P07711); assay: Cathepsin enzyme inhibition assay (fluorogenic peptide substrate Z-Val-Val-Arg-AMC), Cathepsin L; format: biochemical, human and mouse; settings: for IC50: enzyme 1 nM, substrate 20 μM, pH 6.5, read-out: CatL IC50
Method in brief: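 Cathepsin L at 1 nM was mixed with compound, then started with 20 μM Z-Val-Val-Arg-AMC in pH 6.5 potassium phosphate with EDTA, Triton X-100 and 5 mM DTT. AMC fluorescence (ex 360/em 465 nm) was followed over 20 min. IC50 is given in μM.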

SMILES	IC50 (Cathepsin S) [nM]	IC50 (Cat L) [nM]	CatL, % @25 uM (Cat L; @25 uM compound) [% @25 uM]
N#CC1(NC(=O)[C@@H]2C[C@@H](S(=O)(=O)c3ccc(N4CCN5CCC[C@H]5C4)cc3Cl)CN2C(=O)C2(c3ccc(Cl)nc3)CC2)CC1 [Example 373, (2S,4R)-4-((S)-2-Chloro-4-hexahydro-pyrrolo[1,2-a]pyrazin-2-yl-benzenesulfonyl)-1-[1-(6-chloro-pyridin-3-yl)-cyclopropanecarbonyl]-pyrrolidine-2-carboxylic acid (1-cyano-cyclopropyl)-amide; Compound with Formic Acid]	0.08	42.7	
N#CC1(NC(=O)C2C[C@@H](S(=O)(=O)c3ccc(OCC(F)(F)F)cc3Cl)CN2C(=O)C2(c3ccc(Cl)nc3)CC2)CC1 (stereo in doubt) [Example 377, (R)-1-[1-(6-Chloro-pyridin-3-yl)-cyclopropanecarbonyl]-4-[2-chloro-4-(2,2,2-trifluoro-ethoxy)-benzenesulfonyl]-pyrrolidine-2-carboxylic acid (1-cyano-cyclopropyl)-amide]	0.24	293	
N#CC1(NC(=O)[C@@H]2C[C@@H](S(=O)(=O)c3ccc(Cl)cc3Cl)CN2C(=O)C2(c3ccccc3)CC2)CC1 [Example 224, (2S,4R)-4-(2,4-Dichloro-benzenesulfonyl)-1-(1-phenyl-cyclopropanecarbonyl)-pyrrolidine-2-carboxylic acid (1-cyano-cyclopropyl)-amide]	0.2	1000	
N#CC1(NC(=O)[C@@H]2C[C@@H](S(=O)(=O)c3ccc(OCC(F)(F)F)cc3Cl)CN2C(=O)C[C@H]2CC[C@H](N)CC2)CC1 [Example 265, (2S,4R)-1-[2-(4-Amino-cyclohexyl)-acetyl]-4-[2-chloro-4-(2,2,2-trifluoro-ethoxy)-benzenesulfonyl]-pyrrolidine-2-carboxylic acid (1-cyano-cyclopropyl)-amide]	1.35	2050	
Cc1cc(N2C[C@H](S(=O)(=O)c3ccccc3Cl)C[C@H]2C(=O)NC2(C#N)CC2)n(-c2ccnc(Cl)c2)n1 [Example 254, (2S,4R)-4-(2-Chloro-benzenesulfonyl)-1-[2-(2-chloro-pyridin-4-yl)-5-methyl-2H-pyrazol-3-yl]-pyrrolidine-2-carboxylic acid (1-cyano-cyclopropyl)-amide]	0.83	2260	
Cc1cc(N2C[C@H](S(C)(=O)=O)C[C@H]2C(=O)NC2(C#N)CC2)n(CC(F)(F)F)n1 [Example 466, (2S,4R)-4-Methanesulfonyl-1-[5-methyl-2-(2,2,2-trifluoro-ethyl)-2H-pyrazol-3-yl]-pyrrolidine-2-carboxylic acid (1-cyano-cyclopropyl)-amide]	8600		95
Cn1cc(-c2ccc(C3(C(=O)N4C[C@H](S(=O)(=O)c5ccc(OCC(F)(F)F)cc5Cl)C[C@H]4C(=O)NC4(C#N)CC4)CC3)cc2)cn1 [Example 288, (2S,4R)-4-[2-Chloro-4-(2,2,2-trifluoro-ethoxy)-benzenesulfonyl]-1-{1-[4-(1-methyl-1H-pyrazol-4-yl)-phenyl]-cyclopropanecarbonyl}-pyrrolidine-2-carboxylic acid (1-cyano-cyclopropyl)-amide]	0.08	3480	
Cc1cc(N2C[C@H](S(=O)(=O)c3ccccc3C(F)(F)F)C[C@H]2C(=O)NC2(C#N)CC2)n(-c2ccn(C(=O)OCC(C)C)c(=O)c2)n1 [Example 231, 4-{5-[(2S,4R)-2-(1-Cyano-cyclopropylcarbamoyl)-4-(2-trifluoromethyl-benzenesulfonyl)-pyrrolidin-1-yl]-3-methyl-pyrazol-1-yl}-2-oxo-2H-pyridine-1-carboxylic acid Isobutyl ester]	0.5	> 25000	
N#CC1(NC(=O)[C@@H]2C[C@@H](S(=O)(=O)c3ccccc3Cl)CN2C(=O)C2(c3ccc(Cl)c(Cl)c3)CC2)CC1 [Example 284, (2S,4R)-4-(2-Chloro-benzenesulfonyl)-1-[1-(3,4-dichloro-phenyl)-cyclopropanecarbonyl]-pyrrolidine-2-carboxylic acid (1-cyano-cyclopropyl)-amide]	0.07	463	
N#CC1(NC(=O)[C@@H]2C[C@@H](S(=O)(=O)c3ccccc3Cl)CN2C(=O)C2(c3ccccc3)CC2)CC1 [Example 216, (2S,4R)-4-(2-Chloro-benzenesulfonyl)-1-(1-phenyl-cyclopropanecarbonyl)-pyrrolidine-2-carboxylic acid (1-cyano-cyclopropyl)-amide]	0.2	285	
N#CC1(NC(=O)[C@@H]2C[C@@H](S(=O)(=O)c3ccc(N4CCCCC4)cc3Cl)CN2)CC1 [Example 127, (2S,4R)-4-(2-Chloro-4-piperidin-1-yl-benzenesulfonyl)-pyrrolidine-2-carboxylic acid (1-cyano-cyclopropyl)-amide]	2	6000	
N#CC1(NC(=O)[C@@H]2C[C@@H](S(=O)(=O)c3ccccc3Cl)CN2C=O)CC1 [Example 78, (2S,4R)-4-(2-Chloro-benzenesulfonyl)-1-formyl-pyrrolidine-2-carboxylic acid (1-cyano-cyclopropyl)-amide]	18.5	≥ 25000	
N#CC1(NC(=O)[C@@H]2C[C@@H](S(=O)(=O)c3ccccc3C(F)(F)F)CN2C(=O)CC(F)(F)F)CC1 [Example 206, (2S,4R)-4-(2-Trifluoromethyl-benzenesulfonyl)-1-(3,3,3-trifluoro-propionyl)-pyrrolidine-2-carboxylic acid (1-cyano-cyclopropyl)-amide]	0.2	≥ 25000	
CC(C)C[C@]1(C(=O)NC2(C#N)CC2)C[C@H](S(C)(=O)=O)[C@@H](c2ccc(F)cc2)N1C(=O)OC(C)(C)C [Example 125, (2R,4S,5R)-2-(1-Cyano-cyclopropylcarbamoyl)-5-(4-fluoro-phenyl)-2-isobutyl-4-methanesulfonyl-pyrrolidine-1-carboxylic acid tert.-butyl ester]	195	≥ 25000	
N#CC1(NC(=O)[C@H]2CC(S(=O)(=O)c3ccccc3Cl)CN2C(=O)C(NCC(F)(F)F)c2ccc(Cl)cc2)CC1 (stereo partly drawn) [Example 421, (R)-4-(2-Chloro-benzenesulfonyl)-1-[2-(4-chloro-phenyl)-2-(2,2,2-trifluoro-ethylamino)-acetyl]-pyrrolidine-2-carboxylic acid (1-cyano-cyclopropyl)-amide]	11.5	4950	
CN1CCC(C(=O)N2C[C@H](S(=O)(=O)c3ccccc3C(F)(F)F)C[C@H]2C(=O)NCC#N)CC1 [Example 70, (2S,4R)-1-(1-Methyl-piperidine-4-carbonyl)-4-(2-trifluoromethyl-benzenesulfonyl)-pyrrolidine-2-carboxylic acid cyanomethyl-amide formiate]	1.6	25200	
COCCN1C[C@H](S(=O)(=O)c2ccccc2C(F)(F)F)C[C@H]1C(=O)NC1(C#N)CC1 [Example 110, (2S,4R)-1-(2-Methoxy-ethyl)-4-(2-trifluoromethyl-benzenesulfonyl)-pyrrolidine-2-carboxylic Acid (1-cyano-cyclopropyl)-amide]	60.5	≥ 25000	
Cc1ccc(=O)n(-c2ccc(S(=O)(=O)[C@@H]3C[C@@H](C(=O)NC4(C#N)CC4)N(C(=O)OC(C)(C)C)C3)c(C(F)(F)F)c2)n1 [Example 10, (2S,4R)-2-(1-Cyano-cyclopropylcarbamoyl)-4-[4-(3-methyl-6-oxo-6H-pyridazin-1-yl)-2-trifluoromethyl-benzenesulfonyl]-pyrrolidine-1-carboxylic acid tert-butyl ester]	0.7	≥ 25000	
COc1ccc(S(=O)(=O)[C@@H]2C[C@@H](C(=O)NC3(C#N)CC3)N(c3cc(C)nn3Cc3ccccc3)C2)c(Cl)c1 [Example 376, (2S,4R)-1-(2-Benzyl-5-methyl-2H-pyrazol-3-yl)-4-(2-chloro-4-methoxy-benzenesulfonyl)-pyrrolidine-2-carboxylic acid (1-cyano-cyclopropyl)-amide]	0.657	1760	
N#CC1(NC(=O)[C@@H]2C[C@@H](S(=O)(=O)c3ccc(OCC(F)(F)F)cc3Cl)CN2C(=O)C2(c3ccc(C(N)=O)cc3)CC2)CC1 [Example 277, (2S,4R)-1-[1-(4-Carbamoyl-phenyl)-cyclopropanecarbonyl]-4-[2-chloro-4-(2,2,2-trifluoro-ethoxy)-benzenesulfonyl]-pyrrolidine-2-carboxylic acid (1-cyano-cyclopropyl)-amide]	0.14	445	
Cc1cc(N2C[C@H](S(=O)(=O)c3ccccc3)C[C@H]2C(=O)NC2(C#N)CC2)n(-c2ccc(C(F)(F)F)cc2)n1 [Example 261, (2S,4R)-4-Benzenesulfonyl-1-[5-methyl-2-(4-trifluoromethyl-phenyl)-2H-pyrazol-3-yl]-pyrrolidine-2-carboxylic acid (1-cyano-cyclopropyl)-amide]	12	27000	
CC(C)N1CCN(c2ccc(S(=O)(=O)[C@@H]3C[C@@H](C(=O)NC4(C#N)CC4)N(C(=O)C4(C(F)(F)F)CC4)C3)c(Cl)c2)CC1 [Example 293, (2S,4R)-4-[2-Chloro-4-(4-isopropyl-piperazin-1-yl)-benzenesulfonyl]-1-(1-trifluoromethyl-cyclopropanecarbonyl)-pyrrolidine-2-carboxylic acid (1-cyano-cyclopropyl)-amide]	0.18	1400	
